Earlier results on 1 compound are cited in US9434994B2, “Methods for prediction of clinical outcome to epidermal growth factor receptor inhibitors by non-small cell lung cancer patients” (The Regents of the University of Colorado, a body corporate, priority 2004, dated 2016).

SMILES strings stand for the structures.

The subject of the data set is advanced NSCLC patients. The settings on record: cited from earlier work.
The mark [1] stands for this setting: unselected gefitinib treated NSCLC patients.

Consider `COc1cc2ncnc(Nc3ccc(F)c(Cl)c3)c2cc1OCCCN1CCOCC1` [gefitinib], for which the stable disease rates entry (NSCLC patients treated with gefitinib) was “about 30%”. Moreover, the “disease stabilization and symptomatic improvement” value (advanced disease progressing after standard therapies) was “about 40%”. In addition, under setting [1], the Objective Response entry was “up to 18%” and the symptomatic improvement is 40%.
